Data from patent US5292742A, “Angiotensin II receptor blocking 2,3,6 substituted quinazolinones” (American Cyanamid Company, priority 1993, dated 1994).
Several values for one entry are separate records, joined by “and”; a condition that tells them apart may be missing. Equal entries are not always repeated.

System: angiotensin II (AII) vasopressor response
Assay: AII challenge: inhibition of angiotensin II vasopressor response in conscious spontaneously hypertensive rats
Assay type: in vivo, rat (Okamoto-Aoki SHR)
Conditions: 3 mg/kg IV; for % Inhibition (angiotensin blockage) of AII vasopressor response / Average Change (increase in systolic blood pressure after AII): SHR n = 2; for Change (increase in systolic blood pressure after AII), individual rat / Response After AII (systolic blood pressure), individual rat / Control Before AII (systolic blood pressure), individual rat: individual SHR
From the text: By administering a compound of this invention to a rat, and then challenging with angiotensin II, a blockage of the vasopressor response is realized.
Conscious Male Okamoto-Aoki SHR, 16-20 weeks old, weighing approximately 330 g are purchased from Charles River Labs (Wilmington, Mass.). Conscious rats are restrained in a supine position with elastic tape. The area at the base of the tail is locally anesthetized by subcutaneous infiltration with 2% procaine. The ventral caudal artery and vein are isolated, and a cannula made of polyethylene (PE) 10-20 tubing (fused together by heat) is passed into the lower abdominal aorta and vena cava, respectively. The cannula is secured, heparinized (1,000 I.U./ml), sealed and the wound is closed. The animals are placed in plastio restraininq cages in an upright position. The cannula is attached to a Statham P23Db pressure transducer, and pulsatile blood pressure is recorded to 10-15 minutes with a Gould Brush recorder. (Chan et al., (Drug Development Res., 18:75-94, 1989).
Angiotensin II (human sequence, Sigma Chem. Co., St. Louis, Mo.) of 0.05 and 0.1 mcg/kg i.v. is injected into all rats (predosing response). Then a test compound, vehicle or a known angiotensin II antagonist is administered i.v., i.p. or orally to each set of rats. The two doses of angiotensin II are given to each rat again at 30, 60, 90, 120, 180, 240 and 300 minutes post dosing the compound or vehicle. The vasopressor response of angiotensin II is measured for the increase in systolic blood pressure in mmHg. The percentage of antagonism or blockade of the vasopressor response of angiotensin II by a compound is calculated using the vasopressor response (increase in systolic blood pressure) of angiotensin II of each rat predosing the compound as 100%. A compound is considered active if at 30 mg/kg i.v. it antagonized at least 50% of the response.

[1] = AII 0.05 mcg/kg IV, 30 min post dose
[2] = AII 0.05 mcg/kg IV, 60 min post dose
[3] = AII 0.05 mcg/kg IV, 90 min post dose
[4] = AII 0.05 mcg/kg IV, 120 min post dose
[5] = AII 0.05 mcg/kg IV, 180 min post dose
[6] = AII 0.05 mcg/kg IV, 240 min post dose
[7] = AII 0.05 mcg/kg IV, 300 min post dose
[8] = AII 0.1 mcg/kg IV, 30 min post dose
[9] = AII 0.1 mcg/kg IV, 60 min post dose
[10] = AII 0.1 mcg/kg IV, 90 min post dose
[11] = AII 0.1 mcg/kg IV, 120 min post dose
[12] = AII 0.1 mcg/kg IV, 180 min post dose
[13] = AII 0.1 mcg/kg IV, 240 min post dose
[14] = AII 0.1 mcg/kg IV, 300 min post dose

SMILES: CCCCc1nc2ccc(C3=NN4CCCC4C3)cc2c(=O)n1Cc1ccc(-c2ccccc2-c2nnn[nH]2)cc1 (stereo not shown) [Example 10, 2-Butyl-6-(3a,4,5,6-tetrahydro-3H-pyrrolo[1,2-b]-pyrazol-2-yl)-3-[[2'-(1H-tetrazol-5-yl)[1,1'-biphenyl]-4-yl]methyl]-4(3H)-quinazolinone]
- % Inhibition (angiotensin blockage) of AII vasopressor response [1]: 61%
- Average Change (increase in systolic blood pressure after AII) [1]: 13.5 mmHg
- Change (increase in systolic blood pressure after AII), individual rat [1]: 12 mmHg and 15 mmHg
- % Inhibition (angiotensin blockage) of AII vasopressor response [2]: 7%
- Average Change (increase in systolic blood pressure after AII) [2]: 32.5 mmHg
- Change (increase in systolic blood pressure after AII), individual rat [2]: 30 mmHg and 35 mmHg
- % Inhibition (angiotensin blockage) of AII vasopressor response [3]: 43%
- Average Change (increase in systolic blood pressure after AII) [3]: 20 mmHg
- Change (increase in systolic blood pressure after AII), individual rat [3]: 30 mmHg and 10 mmHg
- % Inhibition (angiotensin blockage) of AII vasopressor response [4]: 43%
- Average Change (increase in systolic blood pressure after AII) [4]: 20 mmHg
- Change (increase in systolic blood pressure after AII), individual rat [4]: 25 mmHg and 15 mmHg
- % Inhibition (angiotensin blockage) of AII vasopressor response [5]: 36%
- Average Change (increase in systolic blood pressure after AII) [5]: 22.5 mmHg
- Change (increase in systolic blood pressure after AII), individual rat [5]: 25 mmHg and 20 mmHg
- % Inhibition (angiotensin blockage) of AII vasopressor response [6]: 50%
- Average Change (increase in systolic blood pressure after AII) [6]: 17.5 mmHg
- Change (increase in systolic blood pressure after AII), individual rat [6]: 20 mmHg and 15 mmHg
- % Inhibition (angiotensin blockage) of AII vasopressor response [7]: 7%
- Average Change (increase in systolic blood pressure after AII) [7]: 32.5 mmHg
- Change (increase in systolic blood pressure after AII), individual rat [7]: 35 mmHg and 30 mmHg
- % Inhibition (angiotensin blockage) of AII vasopressor response [8]: 55%
- Average Change (increase in systolic blood pressure after AII) [8]: 22.5 mmHg
- Change (increase in systolic blood pressure after AII), individual rat [8]: 20 mmHg and 25 mmHg
- % Inhibition (angiotensin blockage) of AII vasopressor response [9]: 55%
- Average Change (increase in systolic blood pressure after AII) [9]: 22.5 mmHg
- Change (increase in systolic blood pressure after AII), individual rat [9]: 25 mmHg and 20 mmHg
- % Inhibition (angiotensin blockage) of AII vasopressor response [10]: 50%
- Average Change (increase in systolic blood pressure after AII) [10]: 25 mmHg
- Change (increase in systolic blood pressure after AII), individual rat [10]: 25 mmHg
- % Inhibition (angiotensin blockage) of AII vasopressor response [11]: 50%
- Average Change (increase in systolic blood pressure after AII) [11]: 25 mmHg
- Change (increase in systolic blood pressure after AII), individual rat [11]: 30 mmHg and 20 mmHg
- % Inhibition (angiotensin blockage) of AII vasopressor response [12]: 45%
- Average Change (increase in systolic blood pressure after AII) [12]: 27.5 mmHg
- Change (increase in systolic blood pressure after AII), individual rat [12]: 30 mmHg and 25 mmHg
- % Inhibition (angiotensin blockage) of AII vasopressor response [13]: 50%
- Average Change (increase in systolic blood pressure after AII) [13]: 25 mmHg
- Change (increase in systolic blood pressure after AII), individual rat [13]: 25 mmHg
- % Inhibition (angiotensin blockage) of AII vasopressor response [14]: 30%
- Average Change (increase in systolic blood pressure after AII) [14]: 35 mmHg
- Change (increase in systolic blood pressure after AII), individual rat [14]: 45 mmHg and 25 mmHg
- Response After AII (systolic blood pressure), individual rat (after AII 0.05 mcg/kg IV, 30 min post dose): 242 mmHg and 255 mmHg
- Response After AII (systolic blood pressure), individual rat (after AII 0.05 mcg/kg IV, 60 min post dose): 255 mmHg and 270 mmHg
- Response After AII (systolic blood pressure), individual rat (after AII 0.05 mcg/kg IV, 90 min post dose): 255 mmHg and 250 mmHg
- Response After AII (systolic blood pressure), individual rat (after AII 0.05 mcg/kg IV, 120 min post dose): 250 mmHg and 230 mmHg
- Response After AII (systolic blood pressure), individual rat (after AII 0.05 mcg/kg IV, 180 min post dose): 235 mmHg
- Response After AII (systolic blood pressure), individual rat (after AII 0.05 mcg/kg IV, 240 min post dose): 230 mmHg and 235 mmHg
- Response After AII (systolic blood pressure), individual rat (after AII 0.05 mcg/kg IV, 300 min post dose): 250 mmHg and 245 mmHg
- Response After AII (systolic blood pressure), individual rat (after AII 0.1 mcg/kg IV, 30 min post dose): 250 mmHg and 260 mmHg
- Response After AII (systolic blood pressure), individual rat (after AII 0.1 mcg/kg IV, 60 min post dose): 255 mmHg and 260 mmHg
- Response After AII (systolic blood pressure), individual rat (after AII 0.1 mcg/kg IV, 90 min post dose): 265 mmHg and 260 mmHg
- Response After AII (systolic blood pressure), individual rat (after AII 0.1 mcg/kg IV, 120 min post dose): 265 mmHg and 240 mmHg
- Response After AII (systolic blood pressure), individual rat (after AII 0.1 mcg/kg IV, 180 min post dose): 245 mmHg and 250 mmHg
- Response After AII (systolic blood pressure), individual rat (after AII 0.1 mcg/kg IV, 240 min post dose): 250 mmHg and 240 mmHg
- Response After AII (systolic blood pressure), individual rat (after AII 0.1 mcg/kg IV, 300 min post dose): 255 mmHg and 250 mmHg
- Control Before AII (systolic blood pressure), individual rat (before AII 0.05 mcg/kg IV, 30 min post dose): 230 mmHg and 240 mmHg
- Control Before AII (systolic blood pressure), individual rat (before AII 0.05 mcg/kg IV, 60 min post dose): 225 mmHg and 235 mmHg
- Control Before AII (systolic blood pressure), individual rat (before AII 0.05 mcg/kg IV, 90 min post dose): 225 mmHg and 240 mmHg
- Control Before AII (systolic blood pressure), individual rat (before AII 0.05 mcg/kg IV, 120 min post dose): 225 mmHg and 215 mmHg
- Control Before AII (systolic blood pressure), individual rat (before AII 0.05 mcg/kg IV, 180 min post dose): 210 mmHg and 215 mmHg
- Control Before AII (systolic blood pressure), individual rat (before AII 0.05 mcg/kg IV, 240 min post dose): 210 mmHg and 220 mmHg
- Control Before AII (systolic blood pressure), individual rat (before AII 0.05 mcg/kg IV, 300 min post dose): 215 mmHg
- Control Before AII (systolic blood pressure), individual rat (before AII 0.1 mcg/kg IV, 30 min post dose): 230 mmHg and 235 mmHg
- Control Before AII (systolic blood pressure), individual rat (before AII 0.1 mcg/kg IV, 60 min post dose): 230 mmHg and 240 mmHg
- Control Before AII (systolic blood pressure), individual rat (before AII 0.1 mcg/kg IV, 90 min post dose): 240 mmHg and 235 mmHg
- Control Before AII (systolic blood pressure), individual rat (before AII 0.1 mcg/kg IV, 120 min post dose): 235 mmHg and 220 mmHg
- Control Before AII (systolic blood pressure), individual rat (before AII 0.1 mcg/kg IV, 180 min post dose): 215 mmHg and 225 mmHg
- Control Before AII (systolic blood pressure), individual rat (before AII 0.1 mcg/kg IV, 240 min post dose): 225 mmHg and 215 mmHg
- Control Before AII (systolic blood pressure), individual rat (before AII 0.1 mcg/kg IV, 300 min post dose): 210 mmHg and 225 mmHg
